Measured values as given in US20230295436A1, “INTERMOLECULARLY-FABRICATED COMPOSITION FOR ENCAPSULATING PLANT MATERIALS, AGROCHEMICALS AND PHARMACEUTICALS” (University of Central Florida Research Foundation, Inc., priority 2022, published 2023).
In brackets after ≈: the same amount, converted by molar mass.

Experiments:
[1] = Dynamic light scattering (hydrodynamic size, PDI); assay type: physicochemical; conditions: optimized formulations and controls, Table 1
Text: (§1) Malvern Zetasizer Nano ZS90 was used to study the hydrodynamic size, surface charge, and polydispersity index (PDI) of the NPs. Agilent Cary 300 Bio UV-Vis spectrophotometer was used to measure the absorbance of materials across the UV-Visible spectrum. Spectronic 200 spectrophotometer was used to carry out the degradation and release rate studies. Samples were freeze-dried using a Labconco lyophilizer. Shimadzu IRSpirit with QATR-S was used to obtain
(§2) DLS and ZP measurements were done using a Malvern Zetasizer ZS90 to determine the samples' hydrodynamic size and surface charge, respectively. The samples were diluted to approximately 200 ppm of curcumin to obtain 100 to 1000 kilo counts per second (kcps). Samples were added into the appropriate cuvettes for DLS and ZP readings.

[2] = Zeta potential (surface charge); assay type: physicochemical; conditions: optimized formulations and controls, Table 1
Text: as §1, §2

[3] = Degradation rate of curcumin in aqueous solution; assay type: physicochemical
Experimental: The degradation rate of Cur-TA-PVP NPs and free curcumin was determined by measuring the peak absorbance over time as this can be correlated to the concentration in solution. […] Absorbance readings of samples were acquired at 425 nm every 60 minutes for 24 hours. Degradation rate equations were determined based on the trendlines that provide an R2 of 0.95 or greater. Simple linear regressions were also performed to compare the slopes of the degradation curves to determine if the difference was statistically significant.

[4] = test system: S16 Rat Schwann Cells; experiment: AlamarBlue viability assay, S16; assay type: cell-based; conditions: S16 RSCs, 24 hours, 0 to 80 μM curcumin
Experimental: The viability of cells when treated with Cur-TA-PVP, TA-PVP, or free curcumin was assessed to determine the therapeutic window of treatments. This was done by performing an alamarBlue (resazurin) assay according to the manufacturer's instructions. The cell types assessed were models for those involved in PNI and subsequent PNR: S16 rat Schwann cells (RSCs), J744 murine macrophages, and SH-SY5Y cells (neuronal cell line). SH-SY5Y cells were cultured in DMEM/F12 supplemented with 10% FBS and 1% penicillin/streptomycin, whereas the J744 macrophages and S16 RSCs were cultured in DMEM supplemented with 10% FBS and 1% streptomycin/penicillin.
First, cells (n=3) were seeded in 96 well plates at a density of 10^4 cells per well and incubated overnight in a humidified atmosphere at 37° C. and 5% CO2. Cur-TA-PVP and free curcumin were then introduced into the wells at a concentration range of 0 to 80 μM curcumin. In the case of TA-PVP, the concentration range was equivalent to TA and PVP concentrations in the Cur-TA-PVP NPs. The plates were incubated for 24 hours, and the media containing treatments was then removed and fresh media with 10% 0.15 mg/mL resazurin was added into all wells. The plates were incubated for 2 hours, and the fluorescence was read using a Tecan plate reader at an ex/em of 560/590 nm. The cell viability was calculated using the following equation.

[5] = test system: SH-SY5Y cells; experiment: H2O2-induced oxidative stress and cell viability, SH-SY5Y; assay type: cell-based; conditions: 6 hours pre-treatment, 50 μM H2O2 for 18 hours
Experimental: The potential for Cur-TA-PVP, TA-PVP, or free curcumin to rescue cells from oxidative damage induced by H2O2 was assessed to determine the antioxidant activity of the treatments in cells. The assay was performed according to a previously published protocol by Mahakunakorn et al. [Mahakunakorn, P., et al., Cytoprotective and cytotoxic effects of curcumin: dual action on H2O2-induced oxidative cell damage in NG108-15 cells. Biol Pharm Bull, 2003. 26(5): p. 725-8.]. Briefly, SH-SY5Y cells and J744 murine macrophages were each seeded in 96 well plates (n=3) and incubated overnight at 37° C. and 5% CO2. Cells were then pre-treated with fresh media containing treatments for 6 hours, and then with fresh media containing 100 μM H2O2 (J774) or 50 μM (SH-SY5Y) for another 18 hours. The media was then replaced with complete media containing 10% of 0.15 mg/mL resazurin. The cells were incubated for 2 hours, and the fluorescence was read at an ex/em of 560/590 nm. The cell viability was determined using the equation noted in section 10.3.1.

[6] = Appearance / colloidal stability in water; assay type: physicochemical; conditions: aqueous solution
Text: Biochim Biophys Acta, 2008. 1780(4): p. 673-9.]. Curcumin directly interacts with or leads to the upregulation of many intracellular proteins involved in anti-inflammation, antioxidant, neuroprotective, and re-myelination pathways [Caillaud, M., et al., Key Developments in the Potential of Curcumin for the Treatment of Peripheral Neuropathies. Antioxidants (Basel), 2020. 9(10).]. Thus, the therapeutic potential of free curcumin is lowered by its propensity to reside in the lipid bilayer. Since the TA-PVP carrier improves the stability of curcumin in water, it is therefore expected that this would enhance its availability within the cytoplasm of cells to reach or upregulate targets involved in achieving successful PNR. The NP formulation dramatically increases the colloidal stability of curcumin compared to its free form alone in the aqueous solution.

[7] = cited from earlier work

In the case of COc1cc(/C=C/C(=O)CC(=O)/C=C/c2ccc(O)c(OC)c2)ccc1O [Free Curcumin, curcumin], the “Polydispersity Index (PDI)” value [1] is reported as 0.578, the Z-ave [1] is reported as 328 nm·days and the “Zeta Potential” value [2] is reported as −13 mV. For the same molecule, the “slope of degradation curve (simple linear regression)” value ([3]; 40 μM in water, absorbance at 425 nm every 60 minutes for 24 hours) was −0.01123, the “curcumin remaining in its viable form” value ([3]; after 24 hours of dispersion in PBS) was “about 60%” and the “cell viability compared to other treatment groups” value [4] was “higher cell viability than the other treatment groups at all concentrations”. For the same molecule, the “protection against H2O2-induced oxidative stress (cell rescue)” value [5] was “no cell rescue”, the “colloidal stability in water (appearance)” value [6] was “precipitate and sink to the bottom of the vial” and the water solubility [7] was 100 µg/mL (≈ 271 µM).
